From article PMC9822133, “Design, Synthesis and Antiproliferative Evaluation of Bis-Indole Derivatives with a Phenyl Linker: Focus on Autophagy” (Molecules, 2022)

Experiments:
Atg7 = assay: Western blot, Atg7; format: cell-based, human; conditions: A549, 24, 48, 72 h
Description: Atg7 belongs to the family of Atg (autophagy-related) proteins involved in the process of autophagy. A ubiquitin-like conjugation system is required for autophagosome formation. The Atg7 protein is an E1-like activating enzyme that ensures the conjugation reaction and is essential for successful conversion of cytosolic LC3-I to its conjugated form, LC3-II.. […] Similar results were reported earlier. Hseu et al. studied the effect of a natural chalcone, flavokawain B, on A549 lung cancer cells. […] Moreover, in curcumin-induced autophagy, up-regulation of beclin-1 has also been observed.
A549 cells were seeded on Petri dishes (55 cm^2) at a density of 1 × 10^6 and allowed to culture in the medium. After 24 h, the test substance was added, and the cells were incubated for 24, 48 and 72 h. Subsequently, the cells were lysed with ice-cold Laemli buffer solution containing glycerol, 1M Tris/HCl (pH 6.8), 20% sodium dodecyl sulphate (SDS), deionized water and mixtures of phosphatase and protease inhibitors. After lysis, the cells were sonicated, and the protein concentration in the samples was quantified using the Pierce® BCA Protein Assay Kit (Thermo Scientific, Rockford, IL, USA) and measured by an automated Cytation™ 3 Cell Imaging Multi-Mode Reader (Biotek) at a wavelength of 570 nm. […]

[1] = system: glutathione peroxidase (GPx); assay: GPx activity in treated A549 cells; format: cell-based, human; conditions: A549, 20 µM
Description: Glutathione is an important intracellular molecule involved in carcinogen detoxification. On the other hand, its elevated state in cancer cells is often associated with resistance to chemotherapy. […] Because high levels of GSH are associated with cancer cell resistance, the GHS-depleting effect of compound 49 could be interesting due to new cancer chemosensitizer development. In the case of GST and GR, we hypothesize that an increase in the activity of both enzymes may be a compensatory mechanism induced by GSH depletion.
Both floating and adherent A549 cells were harvested at 24, 48, and 72 h after treatment with compound 49 (20 µM). SOD determination kit, Glutathione Peroxidase Cellular Activity Assay kit, Glutathione Reductase Assay Kit and Glutathione-S-transferase (GST) Assay Kit (all Sigma Aldrich, Germany) were used for the detection of relevant enzyme activity. Reduced glutathione (GSH) content was measured by the method originally described by Floreani et al.. Assays were performed on an M 501 single beam UV/VIS spectrophotometer (Spectronic Camspec Ltd., Leeds, United Kingdom). All measured parameters were calculated per milligram or gram of protein determined using the bicinchoninic acid assay.

In the case of CC(C)(C)OC(=O)n1cc(CNC(=O)Nc2ccc(NC(=O)NCc3cn(C(=O)OC(C)(C)C)c4ccccc34)cc2)c2ccccc21 [Compound 49, N,N′-(1,4-phenylene)bis{N′-[1-(tert-butoxycarbonyl)indol-3-yl]methyl (urea)}], the “levels of Atg7” value (Atg7) is reported as “significantly increased”, the GPx ([1]; 24 h) is reported as 0.148 ± 0.021 μkat/mg Prot and the GPx ([1]; 48 h) is reported as 0.139 ± 0.028 μkat/mg Prot. For the same molecule, the GPx ([1]; 72 h) was 0.077 ± 0.038 μkat/mg Prot.
